Assay results published in patent US7524964B2, “Tetrahydrothiopyrano pyrazole cannabinoid modulators” (Janssen Pharmaceutica NV, priority 2005, dated 2009).
Where two headings read alike, the source gives them in different places.

Experiments:
[1] = molecular target: T1, human CB-2 receptor (Homo sapiens, UniProt P34972); experiment: Binding assay, cannabinoid CB2 receptor ([3H]-CP-55,940 displacement); settings: read-out: CB2 binding percent inhibition
T1 construct: expressed in transfected cells; host or cells: SK-N-MC cells, pcDNA3 CB-2 (human), semi-purified membranes
T1 sequence (P34972 whole entry): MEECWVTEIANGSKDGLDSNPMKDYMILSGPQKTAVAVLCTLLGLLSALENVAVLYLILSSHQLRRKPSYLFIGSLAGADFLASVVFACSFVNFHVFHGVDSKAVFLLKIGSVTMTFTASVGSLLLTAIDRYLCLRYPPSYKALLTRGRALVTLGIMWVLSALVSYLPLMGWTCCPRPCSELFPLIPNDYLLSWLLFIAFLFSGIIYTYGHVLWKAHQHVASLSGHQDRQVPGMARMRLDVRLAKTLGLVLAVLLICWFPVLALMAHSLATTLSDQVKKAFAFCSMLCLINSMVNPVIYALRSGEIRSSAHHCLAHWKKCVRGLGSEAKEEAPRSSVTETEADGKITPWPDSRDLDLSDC
Summary of the method: (§1)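 Membranes from SK-N-MC cells stably expressing human CB-1 or CB-2 were incubated 90 min at 30° C with 0.2 nM [3H]-CP-55,940 in pH 7.5 Tris buffer with fatty-acid-free BSA; 10 uM WIN 55,212 defined non-specific binding. Filter-bound counts gave IC50 by linear regression, or percent inhibition at 0.2, 1 or 10 μM.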

[2] = molecular target: human CB1 receptor (Homo sapiens, UniProt P21554); experiment: Binding assay, cannabinoid CB1 receptor ([3H]-CP-55,940 displacement); design: expressed in transfected cells; host or cells: SK-N-MC cells, pcDNA3 CB-1 (human), semi-purified membranes; settings: for inhibition at 0.2 µM: test concentration 0.2 μM (superscript a)
Chain of human CB1 receptor (P21554 whole entry): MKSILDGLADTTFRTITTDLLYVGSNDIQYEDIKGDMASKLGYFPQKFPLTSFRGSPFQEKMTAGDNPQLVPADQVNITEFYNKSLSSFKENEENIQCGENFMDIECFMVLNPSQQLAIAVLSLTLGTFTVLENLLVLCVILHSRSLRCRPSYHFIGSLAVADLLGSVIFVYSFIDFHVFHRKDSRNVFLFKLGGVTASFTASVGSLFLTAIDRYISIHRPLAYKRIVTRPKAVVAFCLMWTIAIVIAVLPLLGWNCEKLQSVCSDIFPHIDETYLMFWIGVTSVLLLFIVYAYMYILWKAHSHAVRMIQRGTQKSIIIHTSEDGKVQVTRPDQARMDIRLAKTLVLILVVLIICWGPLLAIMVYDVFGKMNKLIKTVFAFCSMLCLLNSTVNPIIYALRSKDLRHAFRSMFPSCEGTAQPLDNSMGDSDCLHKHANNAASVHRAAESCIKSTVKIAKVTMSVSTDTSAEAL
Summary of the method: as §1

[3] = test concentration 0.2 μM (superscript a)
[4] = read-out: CB1 binding percent inhibition

C[C@@H](NS(=O)(=O)/C=C/c1nn(-c2ccc(F)cc2F)c2c1CSCC2Cc1cccc(F)c1)C1CCCCC1 (stereo partly drawn) [Cpd 39, (E)-2-[1-(2,4-difluoro-phenyl)-7-(3-fluoro-benzyl)-1,4,6,7-tetrahydro-thiopyrano[4,3-c]pyrazol-3-yl]-ethenesulfonic acid [(1R)-1-cyclohexyl-ethyl]-amide]
inhibition at 0.2 µM [1, 3]: 37%
inhibition at 0.2 µM [2, 4]: 55%

C[C@@H](NC(=O)c1nn(-c2ccc(Cl)cc2)c2c1CSC/C2=C\c1ccc(F)cc1)c1ccccc1 [Cpd 94, (7Z)-1-(4-chloro-phenyl)-7-(4-fluoro-benzylidene)-1,4,6,7-tetrahydro-thiopyrano[4,3-c]pyrazole-3-carboxylic acid [(1R)-1-phenyl-ethyl]-amide]
inhibition at 0.2 µM [1]: 22%
IC50 [2]: 11 nM

O=C(N[C@@H]1CCC[C@H]1O)c1nn(-c2ccc(Cl)cc2Cl)c2c1C[S+]([O-])C/C2=C\c1ccc(F)cc1 (stereo partly drawn) [Cpd 76, (7Z)-1-(2,4-dichloro-phenyl)-7-(4-fluoro-benzylidene)-5-oxo-4,5,6,7-tetrahydro-1H-5λ^4-thiopyrano[4,3-c]pyrazole-3-carboxylic acid [(1R,2R)-2-hydroxy-cyclopentyl]-amide]
inhibition at 0.2 µM [1, 3]: 0%
inhibition at 0.2 µM [2, 4]: 20%

O=C(NN1CCCCCC1)c1nn(-c2ccc(Cl)cc2Cl)c2c1CS(=O)(=O)C/C2=C\c1ccc(F)cc1 [Cpd 107, (7Z)-1-(2,4-dichloro-phenyl)-7-(4-fluoro-benzylidene)-5,5-dioxo-4,5,6,7-tetrahydro-1H-5λ^6-thiopyrano[4,3-c]pyrazole-3-carboxylic acid azepan-1-ylamide]
inhibition at 0.2 µM [1, 3]: 23%
inhibition at 0.2 µM [2, 4]: 92%

C[C@@H](NC(=O)c1nn(-c2ccc(Cl)cc2Cl)c2c1CSC/C2=C\c1ccc(F)cc1)c1ccccn1 [Cpd 127, (7Z)-1-(2,4-dichloro-phenyl)-7-(4-fluoro-benzylidene)-1,4,6,7-tetrahydro-thiopyrano[4,3-c]pyrazole-3-carboxylic acid [(1R)-1-(pyridin-2-yl)-ethyl]-amide]
inhibition at 0.2 µM [1]: 19%
IC50 [2]: 7 nM

C[C@@H](NC(=O)c1c2c(nn1-c1ccc(Cl)cc1Cl)/C(=C/c1ccc(F)cc1)CS(=O)(=O)C2)c1ccccc1 [Cpd 82, (7Z)-2-(2,4-dichloro-phenyl)-7-(4-fluoro-benzylidene)-5,5-dioxo-4,5,6,7-tetrahydro-2H-5λ^6-thiopyrano[4,3-c]pyrazole-3-carboxylic acid [(1R)-1-phenyl-ethyl]-amide]
inhibition at 0.2 µM [1, 3]: 19%
IC50 [2]: 48 nM

O=C(NN1CCN(CCO)CC1)c1nn(-c2ccc(Cl)cc2Cl)c2c1CS(=O)(=O)C/C2=C\c1ccc(F)cc1 [Cpd 110, (7Z)-1-(2,4-dichloro-phenyl)-7-(4-fluoro-benzylidene)-5,5-dioxo-4,5,6,7-tetrahydro-1H-5λ^6-thiopyrano[4,3-c]pyrazole-3-carboxylic acid [4-(2-hydroxy-ethyl)-piperazin-1-yl]-amide]
inhibition at 0.2 µM [1, 3]: 7%
inhibition at 0.2 µM [2, 4]: 13%

CC1CCCC(C)N1NC(=O)c1nn(-c2ccc(Cl)cc2Cl)c2c1CS(=O)(=O)C/C2=C\c1ccc(F)cc1 (centres unmarked) [Cpd 108, (7Z)-1-(2,4-dichloro-phenyl)-7-(4-fluoro-benzylidene)-5,5-dioxo-4,5,6,7-tetrahydro-1H-5λ^6-thiopyrano[4,3-c]pyrazole-3-carboxylic acid (2,6-dimethyl-piperidin-1-yl)-amide]
inhibition at 0.2 µM [1, 3]: 18%
inhibition at 0.2 µM [2, 4]: 88%

C[C@H](NS(=O)(=O)/C=C/c1c2c(nn1Cc1ccccc1)CCS(=O)(=O)C2)C1CCCCC1 [Cpd 17, (E)-2-(2-benzyl-5,5-dioxo-4,5,6,7-tetrahydro-2H-5λ^6-thiopyrano[4,3-c]pyrazol-3-yl)-ethenesulfonic acid [(1S)-1-cyclohexyl-ethyl]-amide]
inhibition at 1 µM ([1]; test concentration 1 μM (superscript b)): 24%
inhibition at 1 µM ([2]; test concentration 1 μM (superscript b), read-out: CB1 binding percent inhibition): 0%

C[C@H](NC(=O)c1nn(-c2ccc(Cl)cc2Cl)c2c1CS(=O)(=O)C/C2=C\c1ccc(F)cc1)c1ccccc1 [Cpd 65, (7Z)-1-(2,4-dichloro-phenyl)-7-(4-fluoro-benzylidene)-5,5-dioxo-4,5,6,7-tetrahydro-1H-5λ^6-thiopyrano[4,3-c]pyrazole-3-carboxylic acid [(1S)-1-phenyl-ethyl]-amide]
inhibition at 0.2 µM [1, 3]: 17%
IC50 [2]: 5 nM

C[C@H](NC(=O)c1nn(-c2ccc(Cl)cc2Cl)c2c1C[S+]([O-])C/C2=C\c1ccc(F)cc1)c1ccccc1 (stereo partly drawn) [Cpd 74, (7Z)-1-(2,4-dichloro-phenyl)-7-(4-fluoro-benzylidene)-5-oxo-4,5,6,7-tetrahydro-1H-5λ^4-thiopyrano[4,3-c]pyrazole-3-carboxylic acid [(1S)-1-phenyl-ethyl]-amide]
inhibition at 0.2 µM [1, 3]: 8%
inhibition at 0.2 µM [2, 4]: 45%

O=C(N[C@H]1CCCC[C@@H]1O)c1nn(-c2ccc(Cl)cc2Cl)c2c1CS(=O)(=O)C/C2=C\c1ccc(F)cc1 [Cpd 68, (7Z)-1-(2,4-dichloro-phenyl)-7-(4-fluoro-benzylidene)-5,5-dioxo-4,5,6,7-tetrahydro-1H-5λ^6-thiopyrano[4,3-c]pyrazole-3-carboxylic acid [(1S,2S)-2-hydroxy-cyclohexyl]-amide]
inhibition at 0.2 µM [1, 3]: 19%
inhibition at 0.2 µM [2, 4]: 52%

O=C(NNc1ccc(Cl)cc1Cl)c1nn(-c2ccc(Cl)cc2Cl)c2c1CSC/C2=C\c1ccc(F)cc1 [Cpd 52, (7Z)-1-(2,4-dichloro-phenyl)-7-(4-fluoro-benzylidene)-1,4,6,7-tetrahydro-thiopyrano[4,3-c]pyrazole-3-carboxylic acid N′-(2,4-dichloro-phenyl)-hydrazide]
inhibition at 0.2 µM [1, 3]: 28%
inhibition at 0.2 µM [2, 4]: 66%

O=C(N[C@H]1c2ccccc2C[C@H]1O)c1nn(-c2ccc(Cl)cc2Cl)c2c1CSC/C2=C\c1ccc(F)cc1 [Cpd 59, (7Z)-1-(2,4-dichloro-phenyl)-7-(4-fluoro-benzylidene)-1,4,6,7-tetrahydro-thiopyrano[4,3-c]pyrazole-3-carboxylic acid [(1S,2R)-2-hydroxy-indan-1-yl]-amide]
inhibition at 0.2 µM [1]: 25%
IC50 [2]: 42 nM

CC1CCCC(C)N1NC(=O)c1nn(-c2ccc(Cl)cc2Cl)c2c1CSC/C2=C\c1ccc(F)cc1 (centres unmarked) [Cpd 111, (7Z)-1-(2,4-dichloro-phenyl)-7-(4-fluoro-benzylidene)-1,4,6,7-tetrahydro-thiopyrano[4,3-c]pyrazole-3-carboxylic acid (2,6-dimethyl-piperidin-1-yl)-amide]
inhibition at 0.2 µM [1, 3]: 16%
IC50 [2]: 14 nM

C[C@@H](NS(=O)(=O)/C=C/c1n[nH]c2c1CSCC2Cc1cccc(F)c1)C1CCCCC1 (stereo partly drawn) [Cpd 48, (E)-2-[7-(3-fluoro-benzyl)-1,4,6,7-tetrahydro-thiopyrano[4,3-c]pyrazol-3-yl]-ethenesulfonic acid [(1R)-1-cyclohexyl-ethyl]-amide]
inhibition at 0.2 µM [1, 3]: 11%
inhibition at 0.2 µM [2, 4]: 15%

O=C(NNc1ccc(Cl)cc1Cl)c1nn(-c2ccc(Cl)cc2Cl)c2c1C[S+]([O-])C/C2=C\c1ccc(F)cc1 (centres unmarked) [Cpd 77, (7Z)-1-(2,4-dichloro-phenyl)-7-(4-fluoro-benzylidene)-5-oxo-4,5,6,7-tetrahydro-1H-5λ^4-thiopyrano[4,3-c]pyrazole-3-carboxylic acid N′-(2,4-dichloro-phenyl)-hydrazide]
inhibition at 0.2 µM [1, 3]: 9%
inhibition at 0.2 µM [2, 4]: 55%

O=C(NN1CCCC1)c1nn(-c2ccc(Cl)cc2)c2c1CSC/C2=C\c1ccc(F)cc1 [Cpd 102, (7Z)-1-(4-chloro-phenyl)-7-(4-fluoro-benzylidene)-1,4,6,7-tetrahydro-thiopyrano[4,3-c]pyrazole-3-carboxylic acid pyrrolidin-1-ylamide]
inhibition at 0.2 µM [1, 3]: 23%
inhibition at 0.2 µM [2, 4]: 76%

O=C(NN1CCCCC1)c1nn(-c2ccc(Cl)cc2)c2c1C[S+]([O-])C/C2=C\c1ccc(F)cc1 (centres unmarked) [Cpd 96, (7Z)-1-(4-chloro-phenyl)-7-(4-fluoro-benzylidene)-5-oxo-4,5,6,7-tetrahydro-1H-5λ^4-thiopyrano[4,3-c]pyrazole-3-carboxylic acid piperidin-1-ylamide]
inhibition at 0.2 µM [1, 3]: 9%
inhibition at 0.2 µM [2, 4]: 43%

O=S1(=O)Cc2c(/C=C/S(=O)(=O)NN3CCCCC3)nn(-c3ccc(F)cc3F)c2C(Cc2cccc(F)c2)C1 (centres unmarked) [Cpd 45, (E)-2-[1-(2,4-difluoro-phenyl)-7-(3-fluoro-benzyl)-5,5-dioxo-4,5,6,7-tetrahydro-1H-5λ^6-thiopyrano[4,3-c]pyrazol-3-yl]-ethenesulfonic acid piperidin-1-ylamide]
inhibition at 0.2 µM [1, 3]: 8%
inhibition at 0.2 µM [2, 4]: 33%

O=C(N[C@@H]1c2ccccc2C[C@@H]1O)c1nn(-c2ccc(F)cc2F)c2c1CS(=O)(=O)CC2Cc1cccc(F)c1 (stereo partly drawn) [Cpd 51, 1-(2,4-difluoro-phenyl)-7-(3-fluoro-benzyl)-5,5-dioxo-4,5,6,7-tetrahydro-1H-5λ^6-thiopyrano[4,3-c]pyrazole-3-carboxylic acid [(1R,2S)-2-hydroxy-indan-1-yl]-amide]
inhibition at 0.2 µM [1, 3]: 9%
inhibition at 0.2 µM [2, 4]: 35%

O=C(NN1CC2CCCC2C1)c1nn(-c2ccc(Cl)cc2Cl)c2c1CS(=O)(=O)C/C2=C\c1ccc(F)cc1 (centres unmarked) [Cpd 104, (7Z)-1-(2,4-dichloro-phenyl)-7-(4-fluoro-benzylidene)-5,5-dioxo-4,5,6,7-tetrahydro-1H-5λ^6-thiopyrano[4,3-c]pyrazole-3-carboxylic acid (hexahydro-cyclopenta[c]pyrrol-2-yl)-amide]
inhibition at 0.2 µM [1, 3]: 10%
inhibition at 0.2 µM [2, 4]: 76%
